Data on twelve compounds can be found in ChEMBL document CHEMBL1909524, “Discovery of a novel series of cyclic urea as potent CCR5 antagonists” (Bioorg Med Chem Lett, 2011).

Series [1] has as its system HOS. The experiment in a line: Cytotoxicity against human HOS cells assessed as cell death up to 1 uM by celltiter glo assay. The format is cell-based. (In general: ATP-based viability assays read luminescence as a measure of living cells.)
The test system of series [2] is PBL. The experiment in a line: Cytotoxicity against human PBL cells assessed as cell death up to 1 uM by celltiter glo assay. The series is classed as cell-based.
The subject of series [3] is Human immunodeficiency virus 1. The experiment in a line: Antiviral activity against HIV1 Ba-L infected in human PBL cells assessed as reduction of viral replication after 4 days by Steady-Glo luciferase assay. The format is functional, organism-based. To be noted: Human immunodeficiency virus 1, Ba-L, 96 h.
Series [4] has as its system Human immunodeficiency virus 1. The series can be described thus: Antiviral activity against HIV1 Ba-L infected in human HOS cells assessed as reduction of viral replication after 4 days by Steady-Glo luciferase assay. The format is functional, organism-based. To be noted: Human immunodeficiency virus 1, Ba-L, 96 h.
A short description of series [5]: Oral bioavailability in monkey at 1 mg/kg. Conditions: rhesus monkey, in vivo. The format is ADME, organism-based, Macaca mulatta.
A short description of series [6]: Half life in monkey at 1 mg/kg, iv. The series is classed as ADME, organism-based, Macaca mulatta. Also noted: dose 1 mg/kg, route intravenous. Conditions: rhesus monkey, in vivo.
A short description of series [7]: Clearance in rat. The format is ADME, organism-based. To be noted: in vivo.
The nature of series [8]: Oral bioavailability in dog at 1 mg/kg. To be noted: in vivo. The series is classed as ADME, organism-based, Canis lupus familiaris.
Series [9] in a line: Half life in dog at 1 mg/kg, iv. The series is classed as ADME, organism-based, Canis lupus familiaris. Set-up: dose 1 mg/kg, route intravenous. Conditions: in vivo.
The nature of series [10]: Clearance in monkey at 1 mg/kg, po. The format is ADME, organism-based, Macaca mulatta. Also noted: dose 1 mg/kg, route oral. To be noted: rhesus monkey, in vivo.
A short description of series [11]: Clearance in dog at 1 mg/kg, po. The format is ADME, organism-based, Canis lupus familiaris. Set-up: dose 1 mg/kg, route oral. To be noted: in vivo.
The nature of series [12]: Stability of the compound in fasted stimulated intestinal fluid within 1000 hrs. The series is classed as physicochemical. Conditions: simulated gi fluid.
Series [13] in a line: Metabolic stability of the compound in fasted stimulated intestinal fluid. To be noted: simulated gi fluid. The format is physicochemical.
Series [14] can be described thus: Stability of the compound in fasted stimulated intestinal fluid assessed as half life at pH 6. The series is classed as physicochemical. Conditions: fasted simulated intestinal fluid.

`Cc1nc(Oc2ccc(CC(=O)NC(C)C)cc2)ccc1CN1CCC(N2C(=O)N(c3cc(C(N)=O)c(F)cc3F)C[C@H]2c2ccccc2)CC1`: the Activity entry in series [1] and in series [2] was “Non-toxic” each time. Moreover, the IC50 (commonly the concentration that gives 50% inhibition) worked out at 0.5 nM in [3] and 3.3 nM in [4].

`Cc1nc(Oc2ccc(S(C)(=O)=O)cc2F)ccc1CN1CCC(N2C(=O)N(c3cc(C(N)=O)c(F)cc3F)C[C@H]2c2ccccc2)CC1`: the Activity entry in [1] and in [2] was “Non-toxic” throughout. Besides, the IC50 in series [3] came out at 0.6 nM; in [4], 5.2 nM.

Consider `Cc1nc(Oc2ccc(S(C)(=O)=O)cc2)ccc1CN1CCC(N2C(=O)N(c3cc(C(N)=O)c(F)cc3F)C[C@H]2c2ccccc2)CC1`, for which the results for the bioavailability in [5] and in series [8] were 110% and 76%, respectively. The results for the half-life in series [6] and in [9] were 1.4 h and 6.9 h, respectively. The clearance (in general, a measure of how efficiently the substance is removed, as volume per time) in series [7] is 27 mL/min/kg. The Activity result in [1] and in series [2] was “Non-toxic” throughout. Besides, the IC50 was found to be 1 nM in [3] and 4 nM in series [4]. Also, the apparent clearance (CL/F) (usually clearance divided by bioavailability, as obtained after extravascular dosing) in series [10] came to 20.2 mL/min/kg; in series [11], 2.1 mL/min/kg. In addition, the Stability result in [12] is listed as “Stable”.

For `CC(C)c1nc(Oc2ccc(S(C)(=O)=O)cc2)ccc1CN1CCC(N2C(=O)N(c3cc(C(N)=O)c(F)cc3F)C[C@H]2c2ccccc2)CC1`, the Activity result in series [1] and in series [2] was “Non-toxic” each time. Moreover, the IC50 in series [3] turned out to be 1.6 nM; in series [4], 2.6 nM.

As for `Cc1nc(Oc2ccc(S(C)(=O)=O)cc2)ccc1CN1CCC(N2C(=O)N(c3cc(C(N)=O)c(F)cc3F)C[C@@H]2c2ccccc2)CC1`, the values for the IC50 in [3] and in series [4] were 289 nM and 213 nM, respectively.

As to `Cc1nc(Oc2ccc(S(C)(=O)=O)cc2)ccc1CN1CCC(N2C(=O)N(c3cc(C(N)=O)c(F)cc3F)CC2c2ccccc2)CC1` (racemic), the 50% inhibitory concentration (IC50) in series [3] was found to be 2 nM; in series [4], 12 nM.

As for `Cc1nc(Oc2ccc(NS(C)(=O)=O)cc2)ccc1CN1CCC(N2C(=O)N(c3cc(C(N)=O)c(F)cc3F)C(=O)C2c2ccccc2)CC1` (racemic), in [13], the Stability entry is given as “Unstable”. Moreover, the IC50 in [4] stood at 14 nM.

Consider `Cc1nc(Oc2ccc(S(=O)(=O)C(C)C)cc2)ccc1CN1CCC(N2C(=O)N(c3cc(C(N)=O)c(F)cc3F)C[C@H]2c2ccccc2)CC1`, for which the Activity result in series [1] and in series [2] was “Non-toxic” throughout. For the same compound, the IC50 in [3] stood at 1.1 nM; in series [4] it was 3.6 nM.

With `Cc1cc(S(C)(=O)=O)ccc1Oc1ccc(CN2CCC(N3C(=O)N(c4cc(C(N)=O)c(F)cc4F)C[C@H]3c3ccccc3)CC2)c(C)n1`, the Activity entry in [1] and in [2] was “Non-toxic” in each case. Further, the half-maximal inhibitory concentration (IC50) in series [4] worked out at 5.4 nM.

Regarding `Cc1nc(Oc2ccc(NS(C)(=O)=O)cc2)ccc1CN1CCC(N(C(=O)Nc2cc(C(N)=O)c(F)cc2F)c2cccc(F)c2)CC1`, the results for the half-inhibitory concentration (IC50) in series [3] and in series [4] were 0.6 nM and 2 nM, respectively. In addition, the half-life (as a rule, the time in which the quantity being followed falls by half) in series [14] is 334 h.

As for `Cc1nc(Oc2ccc(NS(C)(=O)=O)cc2)ccc1CN1CCC(N(Cc2ccccc2F)C(=O)Nc2cc(C(N)=O)c(F)cc2F)CC1`, the IC50 turned out to be 0.9 nM in [3] and 1.7 nM in [4].

As to `Cc1nc(Oc2ccc(NS(C)(=O)=O)cc2)ccc1CN1CCC(N(C(=O)Oc2ccc(F)c(C(N)=O)c2)c2cccc(F)c2)CC1`, the IC50 in [4] was determined as 29 nM.
